Values after ≈ are worked out from the molar mass of the structure shown. Numbered stars: 1 amine (or outer) side, 2 acyl side, 3 side chain; on linkers, the order of the positions; unused ones are H or OH. Square brackets hold non-standard residues; d marks the D form. Peptide text beside a SMILES is read from it. * marks the point of attachment. ξ: configuration not given here. X1 = N=C1NCC(C(O)C(N[*:1])C(=O)[*:2])N1C1OC(CO)C(O)C(O)C1O; ξEnduracididine(βξ-OH,4'ξ) = N=C1NCC(C(O)C(N)C(=O)O)N1; X2 = OCC1OC(OC2C(CO)OC(*)C(O)C2O)C(O)C(O)C1O; ξCha(3ξ-Me) = CC(C1CCCCC1)C(N)C(=O)O
Columns and labels:
Assay in all cases: in vitro antibacterial evaluation, MIC by broth dilution
Format in all cases: cell-based
Details in all cases: broth dilution, 18 hours at 35° C.
[1] = test system: Enterococcus sp.
Method: (§1) Methods for in vitro Antibacterial Evaluation (Table 1)
(§2) The minimum inhibitory concentration (MIC), the lowest concentration of the antibiotic which inhibits growth of the test organism, is determined by the broth dilution method using Muller-Hinton II […] (Baltimore Biological Laboratories) following the recommendations of the National Committee for Clinical Laboratory Standards [Methods for dilution antimicrobial susceptibility tests for bacteria that grow aerobically, approved standard M7-A2, National Committee for Clinical Laboratory Standards, Villanova, Pa.].
(§3) An inoculum level of 5×10^5 CFU/mL, and a range of antibiotic concentrations (64-0.06 μg/mL) is used. […] The test organisms include a spectrum of Gram-positive bacteria comprised of Staphylococcus sp., Streptococcus sp. and Enterococcus sp. These organisms include recent clinical isolates that are resistant to methicillin, penicillin and/or vancomycin.

[2] = test system: Staphylococcus sp.
Method: as §1, §2, §3

[3] = test system: Streptococcus sp.
Method: as §1, §2, §3

[4] = test system: Escherichia coli
In short: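 MIC is the lowest antibiotic concentration (tested 64-0.06 μg/mL) preventing growth of a 5×10^5 CFU/mL inoculum. Determined by broth dilution in Mueller-Hinton II medium following NCCLS standard M7-A2.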

MIC Enterococcus faecalis (ATCC 29212) ([1]; strain ATCC 29212): >64 µg/mL
MIC Enterococcus faecalis (GC 2242) ([1]; strain GC 2242): 64 µg/mL (≈ 49.2 µM)
MIC Enterococcus faecium (GC 2243) ([1]; strain GC 2243): >64 µg/mL
MIC Enterococcus faecalis (GC 2691) ([1]; strain GC 2691): >64 µg/mL
MIC Enterococcus faecalis (GC 3059) ([1]; strain GC 3059): >64 µg/mL
MIC Enterococcus faecalis (GC 4552) ([1]; strain GC 4552): >64 µg/mL
MIC Enterococcus faecalis (GC 4553) ([1]; strain GC 4553): >64 µg/mL
MIC Enterococcus faecalis (GC 4554) ([1]; strain GC 4554): >64 µg/mL
MIC Enterococcus faecium (GC 4556) ([1]; strain GC 4556): >64 µg/mL
MIC Enterococcus faecium (GC 4557) ([1]; strain GC 4557): 16 µg/mL (≈ 12.3 µM)
MIC Enterococcus avium (GC 4558) ([1]; strain GC 4558): 64 µg/mL (≈ 49.2 µM)
MIC Enterococcus faecalis (GC 6189) ([1]; strain GC 6189): >64 µg/mL
MIC Staphylococcus aureus (ATCC 29213) ([2]; strain ATCC 29213): 32 µg/mL (≈ 24.6 µM)
MIC Staphylococcus aureus (GC 1131) ([2]; strain GC 1131): 32 µg/mL (≈ 24.6 µM)
MIC Staphylococcus aureus (GC 3051) ([2]; strain GC 3051): 32 µg/mL (≈ 24.6 µM)
MIC Staphylococcus aureus (GC 3053) ([2]; strain GC 3053): 64 µg/mL (≈ 49.2 µM)
MIC Staphylococcus aureus (GC 4541) ([2]; strain GC 4541): 32 µg/mL (≈ 24.6 µM)
MIC Staphylococcus aureus (GC 4542) ([2]; strain GC 4542): 32 µg/mL (≈ 24.6 µM)
MIC Staphylococcus aureus-SMITH (GC 4543) ([2]; strain GC 4543): 32 µg/mL (≈ 24.6 µM)
MIC Staphylococcus aureus (GC 4544) ([2]; strain GC 4544): 32 µg/mL (≈ 24.6 µM)
MIC Staphylococcus aureus (GC 4545) ([2]; strain GC 4545): 32 µg/mL (≈ 24.6 µM)
MIC Coagulase Negative Staphylococcus (GC 4547) ([2]; strain GC 4547): 16 µg/mL (≈ 12.3 µM)
MIC Coagulase Negative Staphylococcus (GC 4548) ([2]; strain GC 4548): 16 µg/mL (≈ 12.3 µM)
MIC Coagulase Negative Staphylococcus (GC 4549) ([2]; strain GC 4549): 4 µg/mL (≈ 3.07 µM)
MIC Coagulase Negative Staphylococcus (GC 4551) ([2]; strain GC 4551): 64 µg/mL (≈ 49.2 µM)
MIC Streptococcus pneumoniae (ATCC 6301) ([3]; strain ATCC 6301): 8 µg/mL (≈ 6.15 µM)
MIC Streptococcus pneumoniae (GC 1894) ([3]; strain GC 1894): 4 µg/mL (≈ 3.07 µM)
MIC Streptococcus pyogenes (GC 4563) ([3]; strain GC 4563): 8 µg/mL (≈ 6.15 µM)
MIC Streptococcus agalactiae (GC 4564) ([3]; strain GC 4564): 16 µg/mL (≈ 12.3 µM)
MIC Streptococcus pneumoniae (GC 4565) ([3]; strain GC 4565): 8 µg/mL (≈ 6.15 µM)
MIC Escherichia coli (ATCC 25922) ([4]; strain ATCC 25922): >64 µg/mL
MIC Escherichia coli (GC 4559) ([4]; strain GC 4559): 64 µg/mL (≈ 49.2 µM)
MIC Escherichia coli (GC 4560) ([4]; strain GC 4560): 8 µg/mL (≈ 6.15 µM)
SMILES: CC(C1CCCCC1)C1NC(=O)CNC(=O)C(CO)NC(=O)C(C(O)C2CNC(=N)N2C2OC(CO)C(O)C(O)C2O)NC(=O)C(C(O)C2CNC(=N)N2)NC(=O)C(Cc2ccc(OC3OC(CO)C(OC4OC(CO)C(O)C(O)C4O)C(O)C3O)cc2)NC1=O (stereo not drawn) [Example 51, Cyclo[3-cyclohexyl-2-aminobutanoyl-O-(4-O-hexopyranosylhexopyranosyl)tyrosyl-3-(2-iminoimidazolidin-4-yl)seryl-3-(3-hexopyranosyl-2-iminoimidazolidin-4-yl)-serylserylglycyl]] (cyclo(G[ξCha(3ξ-Me)]Y(X2)[ξEnduracididine(βξ-OH,4'ξ)][X1]S); configuration not given here)
MIC Staphylococcus haemolyticus (GC 4546) ([2]; strain GC 4546): 32 µg/mL (≈ 24.6 µM)
